Target: PIK3CG (human) (UniProt P48736)
Assay: Inhibition of PIK3CG Kinase Assay

Sequence of PIK3CG (human) (P48736 whole entry, looked up): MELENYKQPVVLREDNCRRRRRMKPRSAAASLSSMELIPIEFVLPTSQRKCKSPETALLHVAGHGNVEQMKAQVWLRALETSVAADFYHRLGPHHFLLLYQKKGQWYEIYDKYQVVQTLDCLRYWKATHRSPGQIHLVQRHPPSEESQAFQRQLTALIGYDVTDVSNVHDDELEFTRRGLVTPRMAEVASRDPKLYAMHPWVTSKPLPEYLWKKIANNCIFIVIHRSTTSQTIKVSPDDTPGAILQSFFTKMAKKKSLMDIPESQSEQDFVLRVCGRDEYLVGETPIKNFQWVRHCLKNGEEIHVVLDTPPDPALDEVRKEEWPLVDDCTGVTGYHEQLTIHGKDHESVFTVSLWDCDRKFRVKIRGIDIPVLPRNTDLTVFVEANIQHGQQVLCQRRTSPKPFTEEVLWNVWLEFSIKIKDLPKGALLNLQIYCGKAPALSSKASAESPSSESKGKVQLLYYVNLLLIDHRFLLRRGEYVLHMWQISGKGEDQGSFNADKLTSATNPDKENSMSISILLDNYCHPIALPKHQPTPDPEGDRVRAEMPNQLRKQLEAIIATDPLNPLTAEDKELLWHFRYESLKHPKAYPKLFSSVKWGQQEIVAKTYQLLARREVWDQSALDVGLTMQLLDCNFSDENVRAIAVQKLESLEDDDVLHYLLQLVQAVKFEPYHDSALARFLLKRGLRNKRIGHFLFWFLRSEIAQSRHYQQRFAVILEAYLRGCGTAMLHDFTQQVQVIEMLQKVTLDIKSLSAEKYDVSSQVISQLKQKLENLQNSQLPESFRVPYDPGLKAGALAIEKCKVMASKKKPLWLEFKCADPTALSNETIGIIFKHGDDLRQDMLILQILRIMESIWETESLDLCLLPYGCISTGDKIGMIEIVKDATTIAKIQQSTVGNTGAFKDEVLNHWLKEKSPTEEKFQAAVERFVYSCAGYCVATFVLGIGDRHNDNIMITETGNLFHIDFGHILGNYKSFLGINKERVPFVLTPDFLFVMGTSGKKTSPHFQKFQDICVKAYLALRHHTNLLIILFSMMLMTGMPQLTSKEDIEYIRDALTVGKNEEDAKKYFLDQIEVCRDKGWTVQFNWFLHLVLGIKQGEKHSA

| Structure (SMILES) | IC50 [nM] |
| --- | --- |
| CC(=O)Nc1ccc(/C(O)=C/C2=Nc3cc(N4CCN(C)CC4)ccc3C3=NCCN23)cn1 | 100 to 500 |
| O=C(NC1=Nc2ccccc2C2=NCCN12)c1ccc([N+](=O)[O-])cc1 | > 2000 |
| CSc1ccc(C(=O)NC2=Nc3ccccc3C3=NCCN23)cc1 | > 2000 |
| Cn1cccc1C(=O)NC1=Nc2ccccc2C2=NCCN12 | 500 to 2000 |
| O/C(=C\C1=Nc2c(cccc2C(F)(F)F)C2=NCCN12)c1cccnc1 | 100 to 500 |
| O/C(=C\C1=Nc2ccc(Cl)cc2C2=NCCN12)c1cccnc1 | 100 to 500 |
| COc1cc2c(c(OC)c1C)N=C(NC(=O)c1ccc3[nH]cnc3c1)N1CCN=C21 | 100 to 500 |
| Cc1ccc2c(c1)N=C(/C=C(\O)c1cccnc1)N1CCN=C21 | 100 to 500 |
| CC(=O)Nc1ccc(C(=O)NC2=Nc3cc(N4CCOCC4)ccc3C3=NCCN23)cc1 | 100 to 500 |
| O/C(=C\C1=Nc2cc(Cl)ccc2C2=NCCN12)c1cccnc1 | 100 to 500 |
| O=C(NC1=Nc2cc(OCC(=O)N3CCOCC3)ccc2C2=NCCN12)c1cccnc1 | 100 to 500 |
| O=C(NC1=Nc2ccccc2C2=NCCN12)c1ccncc1 | 500 to 2000 |
| O=C(NC1=Nc2cc(OCCO)ccc2C2=NCCN12)c1cccnc1 | 100 to 500 |
| CN(C)c1cccc(C(=O)NC2=Nc3ccccc3C3=NCCN23)c1 | > 2000 |
| Cc1nc2ncccc2cc1C(=O)NC1=Nc2ccccc2C2=NCCN12 | 100 to 500 |
| O/C(=C\C1=Nc2ccccc2C2=NCCN12)c1cccnc1 | 100 to 500 |
| Cc1ccc2c(c1)C1=NCCN1C(/C=C(\O)c1cccnc1)=N2 | 100 to 500 |
| O=C(NC1=Nc2ccccc2C2=NCCN12)c1ccc(-n2cccc2)cc1 | > 2000 |
| O=C(NC1=Nc2ccccc2C2=NCCN12)c1csc(-c2cccnc2)n1 | > 2000 |
| O=C(NC1=Nc2ccccc2C2=NCCN12)c1cnccn1 | 500 to 2000 |
| O/C(=C\C1=Nc2ccccc2C2=NCCN12)c1ccno1 | 100 to 500 |
| CS(=O)(=O)c1ccc(C(=O)NC2=Nc3ccccc3C3=NCCN23)cc1 | > 2000 |
| C=Cc1ccc2c(c1)C1=NCCN1C(NC(=O)c1cccnc1)=N2 | 100 to 500 |
| CNc1ccc(C(=O)NC2=Nc3ccccc3C3=NCCN23)cn1 | 100 to 500 |
| CN(C=O)c1ccc(C(=O)NC2=Nc3ccccc3C3=NCCN23)cc1 | > 2000 |

| Structure (SMILES) | IC50 [nM] |
| --- | --- |
| O=C(NC1=Nc2ccccc2C2=NCCN12)c1ccc(Cl)nc1 | 500 to 2000 |
| CC(=O)Nc1ccc(/C(O)=C/C2=Nc3c(CN4CCOCC4)cccc3C3=NCCN23)cn1 | 100 to 500 |
| Cc1ccc(C(=O)NC2=Nc3ccccc3C3=NCCN23)c(Cl)n1 | 500 to 2000 |
| O/C(=C\C1=Nc2c(OCC3CC3)cccc2C2=NCCN12)c1cccnc1 | 100 to 500 |
| O/C(=C\C1=Nc2cc(N3CCOCC3)ccc2C2=NCCN12)c1cccnc1 | 100 to 500 |
| O/C(=C\C1=Nc2ccccc2C2=NCCN12)c1ccncc1 | 100 to 500 |
| Cc1nc2ccccn2c1C(=O)NC1=Nc2ccccc2C2=NCCN12 | 100 to 500 |
| COc1cncc(C(=O)NC2=Nc3ccccc3C3=NCCN23)c1 | 100 to 500 |
| NS(=O)(=O)c1ccc(C(=O)NC2=Nc3ccccc3C3=NCCN23)cc1 | 500 to 2000 |
| Cc1cnc(C(=O)NC2=Nc3ccccc3C3=NCCN23)cn1 | 500 to 2000 |
| O=C(NC1=Nc2ccccc2C2=NCCN12)c1cccc([N+](=O)[O-])c1 | > 2000 |
| CCn1nc(C)cc1C(=O)NC1=Nc2ccccc2C2=NCCN12 | 100 to 500 |
| Cc1ccc(/C(O)=C/C2=Nc3ccccc3C3=NCCN23)cn1 | 100 to 500 |
| COc1c(C)cc(C(=O)NC2=Nc3ccccc3C3=NCCN23)cc1C | > 2000 |
| Cc1cc(C(=O)NC2=Nc3ccccc3C3=NCCN23)cnc1N | 100 to 500 |
| O/C(=C\C1=Nc2ccccc2C2=NCCN12)c1cnccn1 | 100 to 500 |
| COc1ccc2c(c1)N=C(NC(=O)c1cccnc1)N1CCN=C21 | 100 to 500 |
| Cc1ccncc1C(=O)NC1=Nc2ccccc2C2=NCCN12 | 100 to 500 |
| Cc1cc(Br)c2c(c1)C1=NCCN1C(/C=C(\O)c1ccc3[nH]cnc3c1)=N2 | 100 to 500 |
| O=C(NC1=Nc2ccccc2C2=NCCN12)c1sccc1Cl | 100 to 500 |
| NS(=O)(=O)c1ccc(C(=O)NC2=Nc3ccccc3C3=NCCN23)c(Cl)c1 | > 2000 |
| Cc1cc(C(=O)NC2=Nc3ccccc3C3=NCCN23)cc(C)c1[N+](=O)[O-] | > 2000 |
| CN(C)C=Nc1cncc(C(=O)NC2=Nc3ccccc3C3=NCCN23)c1 | 100 to 500 |
| Cc1nc(N)ccc1C(=O)NC1=Nc2ccccc2C2=NCCN12 | 100 to 500 |
| O=C(NC1=Nc2ccccc2C2=NCCN12)c1csc([N+](=O)[O-])c1 | > 2000 |

| Structure (SMILES) | IC50 [nM] |
| --- | --- |
| O=C(NC1=Nc2ccccc2C2=NCCN12)c1ccsc1 | 100 to 500 |
| COc1cc2c(c(OC)c1C)N=C(/C=C(\O)c1ccc3[nH]cnc3c1)N1CCN=C21 | 100 to 500 |
| COc1cc2c(cc1OC)C1=NCCN1C(NC(=O)c1ccc(NC(C)=O)nc1)=N2 | 100 to 500 |
| O/C(=C\C1=Nc2ccccc2C2=NCCN12)c1ccccn1 | 500 to 2000 |
| O/C(=C\C1=Nc2cc(N3CCN(Cc4ccccc4)CC3)ccc2C2=NCCN12)c1cccnc1 | 100 to 500 |
| COc1cc(OC)c2c(c1)C1=NCCN1C(NC(=O)c1ccc(NC(C)=O)nc1)=N2 | 100 to 500 |
| O=C(O)CCc1ccc2c(n1)N=C(/C=C(\O)c1cccnc1)N1CCN=C21 | 100 to 500 |
| COc1ccc2c(c1)C1=NCCN1C(/C=C(\O)c1cccnc1)=N2 | 100 to 500 |
| CCOC(=O)c1cc(C(=O)NC2=Nc3ccccc3C3=NCCN23)cc(C(=O)OCC)c1 | > 2000 |
| O=C(NC1=Nc2ccccc2C2=NCCN12)c1ccc(Cl)cc1 | > 2000 |
| O=C(NC1=Nc2ccccc2C2=NCCN12)c1ccco1 | 500 to 2000 |
| O/C(=C\C1=Nc2cc(CN3CCOCC3)ccc2C2=NCCN12)c1cccnc1 | 100 to 500 |
| Cc1cccc2c1N=C(NC(=O)c1cccnc1)N1CCN=C21 | 100 to 500 |
| COc1c(OCCO)ccc2c1N=C(/C=C(\O)c1cccnc1)N1CCN=C21 | ≤ 100 |
| Cc1ccc2c(c1)N=C(NC(=O)c1cccs1)N1CCN=C21 | 100 to 500 |
| O/C(=C\C1=Nc2ccccc2C2=NCCN12)c1ccco1 | 100 to 500 |
| O/C(=C\C1=Nc2c(CN3CCOCC3)cccc2C2=NCCN12)c1cccnc1 | 100 to 500 |
| O/C(=C\C1=Nc2cc(-c3ccccc3)ccc2C2=NCCN12)c1cccnc1 | 100 to 500 |
| COc1cc2c(c(OC)c1C)N=C(/C=C(\O)c1cccnc1)N1CCN=C21 | ≤ 100 |
| COc1cccc2c1N=C(NC(=O)c1cccnc1)N1CCN=C21 | ≤ 100 |
| O=C(NC1=Nc2ccccc2C2=NCCN12)c1csc(-c2ccncc2)n1 | > 2000 |
| COc1cc2c(cc1OC)C1=NCCN1C(/C=C(\O)c1ccc3[nH]cnc3c1)=N2 | ≤ 100 |
| O=C(NC1=Nc2cc(Cl)ccc2C2=NCCN12)c1cccnc1 | 100 to 500 |
| O/C(=C\C1=Nc2c(Br)cccc2C2=NCCN12)c1cccnc1 | 100 to 500 |

Further lines, results first:

| IC50 [nM] | Structure (SMILES) |
| --- | --- |
| ≤ 100 | COc1cccc2c1N=C(NC(=O)c1cc3cccnc3nc1C)N1CCN=C21 |
| ≤ 100 | COc1ccc2c(c1OC)N=C(NC(=O)c1cnc3[nH]cnc3c1)N1CCN=C21 |
| ≤ 100 | COc1ccc2c(c1Br)N=C(NC(=O)c1cccnc1)N1CCN=C21 |
| ≤ 100 | COc1cc2c(c(OC)c1C)N=C(/C=C(\O)c1ccc(NC(C)=O)nc1)N1CCN=C21 |
| ≤ 100 | COc1cc2c(cc1OC)C1=NCCN1C(NC(=O)c1cncc(O)c1)=N2 |
| ≤ 100 | Cc1cccc2c1N=C(NC(=O)c1ccc3[nH]cnc3c1)N1CCN=C21 |
| ≤ 100 | COc1cccc2c1N=C(NC(=O)c1cc3cccnc3nc1C(F)(F)F)N1CCN=C21 |
| ≤ 100 | Cc1ncccc1C(=O)NC1=Nc2ccccc2C2=NCCN12 |
| ≤ 100 | COc1cccc2c1N=C(NC(=O)c1cccnc1Cl)N1CCN=C21 |
| ≤ 100 | Cc1ccc(C(=O)NC2=Nc3ccccc3C3=NCCN23)cn1 |
| ≤ 100 | CC(=O)Nc1ccc(/C(O)=C/C2=Nc3cc(N4CCOCC4)ccc3C3=NCCN23)cn1 |
| ≤ 100 | CC(=O)Nc1ccc(/C(O)=C/C2=Nc3c(C)cccc3C3=NCCN23)cn1 |
| ≤ 100 | Nc1ccc(C(=O)NC2=Nc3ccccc3C3=NCCN23)cn1 |
| ≤ 100 | COc1c(OCC(=O)N(C)C)ccc2c1N=C(/C=C(\O)c1cccnc1)N1CCN=C21 |
| ≤ 100 | COc1c(OCc2nn[nH]n2)ccc2c1N=C(/C=C(\O)c1cccnc1)N1CCN=C21 |
| ≤ 100 | O/C(=C\C1=Nc2cc(N3CCOCC3)ccc2C2=NCCN12)c1cncc(O)c1 |
| ≤ 100 | O/C(=C\C1=Nc2ccccc2C2=NCCN12)c1cccs1 |
| ≤ 100 | COc1ccc2c(c1)N=C(NC(=O)c1ccc3[nH]cnc3c1)N1CCN=C21 |
| ≤ 100 | COc1cc2c(cc1OC)C1=NCCN1C(NC(=O)c1ccc3[nH]cnc3c1)=N2 |

| IC50 [nM] | Structure (SMILES) |
| --- | --- |
| ≤ 100 | COc1c(C)ccc2c1N=C(/C=C(\O)c1ccc(NC(C)=O)nc1)N1CCN=C21 |
| ≤ 100 | COc1c(OCC(=O)N2CCOCC2)ccc2c1N=C(/C=C(\O)c1cccnc1)N1CCN=C21 |
| ≤ 100 | COc1cc(OC)c2c(c1)C1=NCCN1C(/C=C(\O)c1cccnc1)=N2 |
| ≤ 100 | COc1ccc2c(c1OC)N=C(/C=C(\O)c1cccnc1)N1CCN=C21 |
| ≤ 100 | COc1cc2c(c(OC)c1C)N=C(NC(=O)c1cccnc1C)N1CCN=C21 |
| ≤ 100 | COc1c(OCC(N)=O)ccc2c1N=C(/C=C(\O)c1cccnc1)N1CCN=C21 |
| ≤ 100 | COc1c(C)ccc2c1N=C(/C=C(\O)c1ccc3[nH]cnc3c1)N1CCN=C21 |
| ≤ 100 | COc1cccc2c1N=C(NC(=O)c1ccc3[nH]cnc3c1)N1CCN=C21 |
| ≤ 100 | COc1cccc2c1N=C(/C=C(\O)c1cccnc1)N1CCN=C21 |
| ≤ 100 | O=C(NC1=Nc2ccc(Cl)cc2C2=NCCN12)c1cccnc1 |
| ≤ 100 | O=C(NC1=Nc2c(F)cccc2C2=NCCN12)c1ccc2[nH]cnc2c1 |
| ≤ 100 | O=C(NC1=Nc2ccccc2C2=NCCN12)c1cnc2[nH]cnc2c1 |
| ≤ 100 | O=C(NC1=Nc2cc(Cl)ccc2C2=NCCN12)c1ccc2[nH]cnc2c1 |
| ≤ 100 | Cc1ccc(C(=O)NC2=Nc3cc(N4CCOCC4)ccc3C3=NCCN23)cn1 |
| ≤ 100 | CC(=O)Nc1ccc(C(=O)NC2=Nc3ccccc3C3=NCCN23)cn1 |
| ≤ 100 | COc1ccc2c(c1OC)N=C(NC(=O)c1ccc3[nH]cnc3c1)N1CCN=C21 |
| ≤ 100 | COc1cc2c(cc1OC)C1=NCCN1C(/C=C(\O)c1sc(C)nc1C)=N2 |
| ≤ 100 | O/C(=C\C1=Nc2cc(N3CCOCC3)ccc2C2=NCCN12)c1ccc2[nH]cnc2c1 |

— the Kinase Knowledgebase extract (Sharma et al. 2016)
